Where a name gives a salt, the structure may show the parent alone.
These compounds were tested against T1, p38alpha (Homo sapiens, UniProt Q16539) (assay: P38Alpha enzyme inhibition assay (Alphascreen kinase activity assay)). Details: 100 pM p38alpha, 250 μM ATP, 2 hours pre-incubation at 25° C., read-out: p38α inhibition (IC50 values).
T1 construct: purchased Invitrogen PV3304
Assay type: biochemical
Procedure: P38Alpha Enzyme Inhibition Assay.
The inhibitory activity of compounds was determined using an Alphascreen® (Perkin Elmer) based kinase activity assay. Kinase reactions consisted of 25 mM HEPES pH 7.5, 10 mM MgCl2, 100 μM Na3VO4, 2 mM DTT, 0.05 mg/ml Tween 20, 100 pM p38alpha (Invitrogen, PV3304), 1% DMSO and 0.3 μg/ml ATF-2 fusion protein (New England Biolabs, 9224). Compounds were incubated under these conditions for 2 hours, at 25° C., prior to the initiation of the kinase activity by the addition of the 250 μM ATP. Reaction volumes were 20 uL. After 1 hr at 25° C. reactions were stopped by the adding 10 uL of 25 mM HEPES pH 7.5 containing 62.5 mM EDTA, 0.05% Triton X-100, 10% BSA and 0.83 ng/uL anti-phospho-ATF2 antibody (Abeam, ab28812). Detection was performed by measuring luminescence following the addition of Alphascreen Donor beads (Perkin Elmer 6765300) and Protein A Alphascreen Acceptor beads (Perkin Elmer 6760137), both at a final concentration of 20 ug/ml. IC50 values were determined from concentration-response curves.

T1 sequence (Q16539 whole entry): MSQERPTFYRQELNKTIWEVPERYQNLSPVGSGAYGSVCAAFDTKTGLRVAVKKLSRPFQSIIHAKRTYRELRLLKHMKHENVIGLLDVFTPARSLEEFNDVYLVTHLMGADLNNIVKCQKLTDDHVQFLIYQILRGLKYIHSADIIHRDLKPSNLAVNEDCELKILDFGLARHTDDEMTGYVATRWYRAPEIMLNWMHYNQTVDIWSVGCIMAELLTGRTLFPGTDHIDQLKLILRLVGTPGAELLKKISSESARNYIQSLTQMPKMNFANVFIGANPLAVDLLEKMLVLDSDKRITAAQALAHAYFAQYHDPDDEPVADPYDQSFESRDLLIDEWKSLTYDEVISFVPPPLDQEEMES

Question: `C[C@@H]1CCC[C@H](C)N1c1nnc2ccc(O[C@@H]3CC[C@H](NC(=O)Nc4cc(C(C)(C)C)nn4-c4cccc(CN5CCCC5)c4)c4ccccc43)cn12` [Example 144, 1-[5-tert-Butyl-2-(3-pyrrolidin-1-ylmethyl-phenyl)-2H-pyrazol-3-yl]-3-{(1S,4R)-4-[3-((2S,6R)-2,6-dimethyl-piperidin-1-yl)-[1,2,4]triazolo[4,3-a]pyridin-6-yloxy]-1,2,3,4-tetrahydro-naphthalen-1-yl}-urea formate salt] was tested. Which IC50 did it give?
Answer: < 10 nM

Question: For `CN(C)CCOc1cccc(-n2nc(C(C)(C)C)cc2NC(=O)N[C@H]2CC[C@@H](Oc3ccc4nnc(N5CCCCC56CC6)n4c3)c3ccccc32)c1` [Example 148, 1-{(1S,4R)-4-[3-(4-Aza-spiro[2.5]oct-4-yl)-[1,2,4]triazolo[4,3-a]pyridin-6-yloxy]-1,2,3,4-tetrahydro-naphthalen-1-yl}-3-{5-tert-butyl-2-[3-(2-dimethylamino-ethoxy)-phenyl]-2H-pyrazol-3-yl}-urea formate salt], which IC50 is on record?
Answer: < 10 nM

Question: `C[C@H]1CCCCN1c1nnc2ccc(O[C@@H]3CC[C@H](NC(=O)Nc4cc(C(C)(C)C)nn4-c4cccc(OCCN5CCCC5)c4)c4ccccc43)cn12` [Example 154, 1-{5-tert-Butyl-2-[3-(2-pyrrolidin-1-yl-ethoxy)-phenyl]-2H-pyrazol-3-yl}-3-{(1S,4R)-4-[3-((S)-2-methyl-piperidin-1-yl)-[1,2,4]triazolo[4,3-a]pyridin-6-yloxy]-1,2,3,4-tetrahydro-naphthalen-1-yl}-urea formate salt] was tested. Which IC50 did it give?
Answer: < 10 nM

Question: With `CCN(CC)CCOc1cccc(-n2nc(C(C)(C)C)cc2NC(=O)N[C@H]2CC[C@@H](Oc3ccc4nnc(N5CCCC[C@@H]5C)n4c3)c3ccccc32)c1` [Example 155, 1-{5-tert-Butyl-2-[3-(2-diethylamino-ethoxy)-phenyl]-2H-pyrazol-3-yl}-3-{(1S,4R)-4-[3-((S)-2-methyl-piperidin-1-yl)-[1,2,4]triazolo[4,3-a]pyridin-6-yloxy]-1,2,3,4-tetrahydro-naphthalen-1-yl}-urea formate salt] as the compound, how does the IC50 read?
Answer: < 10 nM

Question: Which IC50 does the source give for `C[C@H]1CCCCN1c1nnc2ccc(O[C@@H]3CC[C@H](NC(=O)Nc4cc(C(C)(C)C)nn4-c4cccc(OCCN5CCOCC5)c4)c4ccccc43)cn12` [Example 156, 1-{5-tert-Butyl-2-[3-(2-morpholin-4-yl-ethoxy)-phenyl]-2H-pyrazol-3-yl}-3-{(1S,4R)-4-[3-((S)-2-methyl-piperidin-1-yl)-[1,2,4]triazolo[4,3-a]pyridin-6-yloxy]-1,2,3,4-tetrahydro-naphthalen-1-yl}-urea partial formate salt] here?
Answer: < 10 nM

Question: `C[C@H]1CCCCN1c1nnc2ccc(O[C@@H]3CC[C@H](NC(=O)Nc4cc(C(C)(C)C)nn4-c4cccc(OCCN5CCCCC5)c4)c4ccccc43)cn12` [Example 157, 1-{5-tert-Butyl-2-[3-(2-piperidin-1-yl-ethoxy)-phenyl]-2H-pyrazol-3-yl}-3-{(1S,4R)-4-[3-((S)-2-methyl-piperidin-1-yl)-[1,2,4]triazolo[4,3-a]pyridin-6-yloxy]-1,2,3,4-tetrahydro-naphthalen-1-yl}-urea formate salt] was tested. Which IC50 did it give?
Answer: < 10 nM

Question: Which IC50 does the source give for `C[C@H]1CCCCN1c1nnc2ccc(O[C@@H]3CC[C@H](NC(=O)Nc4cc(C(C)(C)C)nn4-c4cccc(OCCN5CCN(C)CC5)c4)c4ccccc43)cn12` [Example 158, 1-(5-tert-Butyl-2-{3-[2-(4-methyl-piperazin-1-yl)-ethoxy]-phenyl}-2H-pyrazol-3-yl)-3-{(1S,4R)-4-[3-((S)-2-methyl-piperidin-1-yl)-[1,2,4]triazolo[4,3-a]pyridin-6-yloxy]-1,2,3,4-tetrahydro-naphthalen-1-yl}-urea formate salt] here?
Answer: < 10 nM

Question: How did the IC50 turn out when `C[C@H]1CCCCN1c1nnc2ccc(O[C@@H]3CC[C@H](NC(=O)Nc4cc(C(C)(C)C)nn4-c4cccc(OCCN5CCC(F)CC5)c4)c4ccccc43)cn12` [Example 159, 1-{5-tert-Butyl-2-{3-[2-(4-fluoropiperidin-1-yl)-ethoxy]-phenyl}-2H-pyrazol-3-yl}-3-{(1S,4R)-4-[3-((S)-2-methyl-piperidin-1-yl)-[1,2,4]triazolo[4,3-a]pyridin-6-yloxy]-1,2,3,4-tetrahydro-naphthalen-1-yl}-urea formate salt] was run?
Answer: < 10 nM

Question: For `C[C@H]1CCCCN1c1nnc2ccc(O[C@@H]3CC[C@H](NC(=O)Nc4cc(C(C)(C)C)nn4-c4cccc(OCCN5CCCN(C)CC5)c4)c4ccccc43)cn12` [Example 160, 1-(5-tert-Butyl-2-{3-[2-(4-methyl-[1,4]-diazepan-1-yl)-ethoxy]-phenyl}-2H-pyrazol-3-yl)-3-{(1S,4R)-4-[3-((S)-2-methyl-piperidin-1-yl)-[1,2,4]triazolo[4,3-a]pyridin-6-yloxy]-1,2,3,4-tetrahydro-naphthalen-1-yl}-urea formate salt], which IC50 is on record?
Answer: < 10 nM

Question: With `C[C@H]1CCCCN1c1nnc2ccc(O[C@@H]3CC[C@H](NC(=O)Nc4cc(C(C)(C)C)nn4-c4cccc(OCCN5C6CCCC5CC6)c4)c4ccccc43)cn12` [Example 162, 1-(2-{3-[2-(8-Aza-bicyclo[3.2.1]oct-8-yl)-ethoxy]-phenyl}-5-tert-butyl-2H-pyrazol-3-yl)-3-{(1S,4R)-4-[3-((S)-2-methyl-piperidin-1-yl)-[1,2,4]triazolo[4,3-a]pyridin-6-yloxy]-1,2,3,4-tetrahydro-naphthalen-1-yl}-urea formate salt] as the compound, how does the IC50 read?
Answer: < 10 nM

Question: How did the IC50 turn out when `CCN(C)CCOc1cccc(-n2nc(C(C)(C)C)cc2NC(=O)N[C@H]2CC[C@@H](Oc3ccc4nnc(N5CCCC[C@@H]5C)n4c3)c3ccccc32)c1` [Example 163, 1-(5-tert-Butyl-2-{3-[2-(ethyl-methyl-amino)-ethoxy]-phenyl}-2H-pyrazol-3-yl)-3-{(1S,4R)-4-[3-((S)-2-methyl-piperidin-1-yl)-[1,2,4]triazolo[4,3-a]pyridin-6-yloxy]-1,2,3,4-tetrahydro-naphthalen-1-yl}-urea formate salt] was run?
Answer: < 10 nM

Question: For `COC1CCN(CCOc2cccc(-n3nc(C(C)(C)C)cc3NC(=O)N[C@H]3CC[C@@H](Oc4ccc5nnc(N6CCCC[C@@H]6C)n5c4)c4ccccc43)c2)CC1` [Example 165, 1-(5-tert-Butyl-2-{3-[2-(4-methoxy-piperidin-1-yl-ethoxy]-phenyl}-2H-pyrazol-3-yl)-3-{(1S,4R)-4-[3-((S)-2-methyl-piperidin-1-yl)-[1,2,4]triazolo[4,3-a]pyridin-6-yloxy]-1,2,3,4-tetrahydro-naphthalen-1-yl}-urea formate salt], which IC50 is on record?
Answer: < 10 nM

Question: For `C[C@H]1CCCCN1c1nnc2ccc(O[C@@H]3CC[C@H](NC(=O)Nc4cc(C(C)(C)C)nn4-c4cccc(OCCN5C6CCC5COC6)c4)c4ccccc43)cn12` [Example 166, 1-(5-tert-Butyl-2-{3-[2-(3-oxa-8-aza-bicyclo[3.2.1]oct-8-yl)-ethoxy]-phenyl}-2H-pyrazol-3-yl)-3-{(1S,4R)-4-[3-((S)-2-methyl-piperidin-1-yl)-[1,2,4]triazolo[4,3-a]pyridin-6-yloxy]-1,2,3,4-tetrahydro-naphthalen-1-yl}-urea formate salt], which IC50 is on record?
Answer: < 10 nM

Question: For `COC1CCN(Cc2cccc(-n3nc(C(C)(C)C)cc3NC(=O)N[C@H]3CC[C@@H](Oc4ccc5nnc(N6CCCC[C@@H]6C)n5c4)c4ccccc43)c2)CC1` [Example 167, 1-{5-tert-Butyl-2-[3-(4-methoxy-piperidin-1-ylmethyl)-phenyl]-2H-pyrazol-3-yl}-3-{(1S,4R)-4-[3-((S)-2-methyl-piperidin-1-yl)-[1,2,4]triazolo[4,3-a]pyridin-6-yloxy]-1,2,3,4-tetrahydro-naphthalen-1-yl}-urea formate salt], which IC50 is on record?
Answer: < 10 nM

Question: Which IC50 does the source give for `COCCN(C)Cc1cccc(-n2nc(C(C)(C)C)cc2NC(=O)N[C@H]2CC[C@@H](Oc3ccc4nnc(N5CCCC[C@@H]5C)n4c3)c3ccccc32)c1` [Example 168, 1-[5-tert-Butyl-2-(3-{[(2-methoxy-ethyl)-methyl-amino]-methyl}-phenyl)-2H-pyrazol-3-yl]-3-{(1S,4R)-4-[3-((S)-2-methyl-piperidin-1-yl)-[1,2,4]triazolo[4,3-a]pyridin-6-yloxy]-1,2,3,4-tetrahydro-naphthalen-1-yl}-urea formate salt] here?
Answer: < 10 nM

Question: With `C[C@H]1CCCCN1c1nnc2ccc(O[C@@H]3CC[C@H](NC(=O)Nc4cc(C(C)(C)C)nn4-c4cccc(CN5CCC(F)CC5)c4)c4ccccc43)cn12` [Example 169, 1-{5-tert-Butyl-2-[3-(4-fluoro-piperidin-1-ylmethyl)-phenyl]-2H-pyrazol-3-yl}-3-{(1S,4R)-4-[3-((S)-2-methyl-piperidin-1-yl)-[1,2,4]triazolo[4,3-a]pyridin-6-yloxy]-1,2,3,4-tetrahydro-naphthalen-1-yl}-urea formate salt] as the compound, how does the IC50 read?
Answer: < 10 nM

Question: Which IC50 does the source give for `C[C@H]1CCCCN1c1nnc2ccc(O[C@@H]3CC[C@H](NC(=O)Nc4cc(C(C)(C)C)nn4-c4cccc(CN(C)C)c4)c4ccccc43)cn12` [Example 170, 1-[5-tert-Butyl-2-(3-dimethylaminomethyl-phenyl)-2H-pyrazol-3-yl]-3-{(1S,4R)-4-[3-((S)-2-methyl-piperidin-1-yl)-[1,2,4]triazolo[4,3-a]pyridin-6-yloxy]-1,2,3,4-tetrahydro-naphthalen-1-yl}-urea formate salt] here?
Answer: < 10 nM

— patent US9315503B2, “Kinase inhibitors” (CHIESI FARMACEUTICI S.p.A., priority 2011, dated 2016)
